# Results reported in publication PMC9558053, “Development of a novel high-throughput screen for the identification of new inhibitors of protein S-acylation” (The Journal of Biological Chemistry, 2022).
# Assays:
# purified human zDHHC2 = target: T1, purified human zDHHC2 (Homo sapiens, UniProt Q9UIJ5); experiment: In vitro SNAP25 S-acylation by purified zDHHC2, copper-free click chemistry, ELISA; assay type: biochemical; details: for inhibition at 3 µM / inhibition at 10 µM: in vitro ELISA, UoS, read-out: zDHHC2-mediated SNAP25 S-acylation inhibition (%); for inhibition at 3 µM: compound 3 μM; for inhibition at 10 µM: compound 10 μM; for IC50 / SNAP25 S-acylation by purified zDHHC2, SDS-PAGE and Western blotting: in vitro; for IC50: ELISA, concentrations 0.3 to 30 μM, read-out: zDHHC2-mediated substrate (SNAP25) S-acylation IC50 (95 CI); for SNAP25 S-acylation by purified zDHHC2, SDS-PAGE and Western blotting: selected samples at 3 or 10 μM
# T1 construct: StrepII (C); made in house; host or cells: Sf9 TriEX insect cells, baculovirus
# T1 sequence (Q9UIJ5 1-367): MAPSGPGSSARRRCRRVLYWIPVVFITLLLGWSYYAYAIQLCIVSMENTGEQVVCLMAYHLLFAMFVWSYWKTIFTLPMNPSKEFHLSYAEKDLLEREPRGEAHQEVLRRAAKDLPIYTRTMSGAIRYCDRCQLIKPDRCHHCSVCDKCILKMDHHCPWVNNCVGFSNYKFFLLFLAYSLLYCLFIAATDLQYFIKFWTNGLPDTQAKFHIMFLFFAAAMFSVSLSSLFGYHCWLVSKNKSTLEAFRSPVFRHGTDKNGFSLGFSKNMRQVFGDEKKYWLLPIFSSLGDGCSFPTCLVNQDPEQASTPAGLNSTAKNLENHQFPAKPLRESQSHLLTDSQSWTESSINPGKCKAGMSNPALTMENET
# human zDHHC15 = target: T2, human zDHHC15 (Homo sapiens, UniProt Q96MV8); experiment: PSD95-mCHERRY S-acylation in HEK293T cells co-expressing zDHHC15; assay type: cell-based; details: 25 μM
# T2 construct: expressed in transfected cells; host or cells: HEK293T
# T2 sequence (Q96MV8 1-337): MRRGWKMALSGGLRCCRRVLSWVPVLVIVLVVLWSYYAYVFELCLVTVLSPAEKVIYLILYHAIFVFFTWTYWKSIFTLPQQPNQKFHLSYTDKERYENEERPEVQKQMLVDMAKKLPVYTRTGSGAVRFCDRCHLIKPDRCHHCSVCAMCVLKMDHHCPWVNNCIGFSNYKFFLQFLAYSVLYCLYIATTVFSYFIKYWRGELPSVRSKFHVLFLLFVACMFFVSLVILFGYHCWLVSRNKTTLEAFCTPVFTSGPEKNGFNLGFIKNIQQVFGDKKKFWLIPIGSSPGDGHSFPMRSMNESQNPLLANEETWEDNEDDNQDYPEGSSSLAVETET
# From the text: PSD95 (postsynaptic density protein 95) is a major S-acylated protein that has a critical role in the maturation of excitatory neurons and in synaptic plasticity ([46], [47]). PSD95 can be S-acylated by zDHHC2, zDHHC3, zDHHC7, and zDHHC15 ([6]). […] We therefore tested the effects of TTZ-1 and TTZ-2 on the S-acylation of PSD95 mediated by zDHHC2, zDHHC3, zDHHC7, and zDHHC15. […] In contrast, zDHHC3 and zDHHC7 activities toward PSD95 were unaffected by TTZ-1 and TTZ-2, mirroring the data obtained with GFP-SNAP25 as a substrate.
# Figure 9 Activity of TTZ-1 and TTZ-2 against PSD95 S-acylation mediated by human zDHHC2, zDHHC3, zDHHC7, and zDHHC15 expressed in mammalian cells. HEK293T cells were transfected with a plasmid encoding PSD95-mCHERRY together with either a control plasmid pEF-BOS-HA (pEF) or a plasmid encoding either HA-tagged human zDHHC2 (zD2), zDHHC3 (zD3), zDHHC7 (zD7), or zDHHC15 (zD15) for 24 h. Cells were then preincubated for 4 h with TTZ-1 or TTZ-2 (25 μM final) or DMSO control before metabolic labeling with 100 μM C16:0-azide for 4 h. Cells were lysed, and proteins having incorporated C16:0-azide were labeled by click chemistry with an alkyne-IR800 dye. […] The data were quantified, and the graphs below each set of membranes show mean ± SEM of normalized S-acylation of PSD95-mCHERRY (click signal/RFP signal). […]
SMILES,inhibition at 3 µM (purified human zDHHC2) [%],inhibition at 10 µM (purified human zDHHC2) [%],IC50 (purified human zDHHC2) [µM],"SNAP25 S-acylation by purified zDHHC2, SDS-PAGE and Western blotting (purified human zDHHC2)",PSD95-mCHERRY S-acylation by zDHHC15 (human zDHHC15)
"CCCCCCCOc1ccc(C(=O)Nc2cccc3c2OC(c2nnn[nH]2)CN3)cc1 (stereo not shown) [TTZ-1, N-(2-(1H-Tetrazol-5-yl)-3,4-dihydro-2H-benzo[b][1,4]oxazin-8-yl)-4-(heptyloxy)benzamide]",30,77,4.7,confirmed the inhibitory activity,significantly inhibited
"O=C(Nc1cccc2c1OC(c1nnn[nH]1)CN2)c1ccc(OCCCCc2ccccc2)cc1 (stereo not shown) [TTZ-2, N-(2-(1H-Tetrazol-5-yl)-3,4-dihydro-2H-benzo[b][1,4]oxazin-8-yl)-4-(4-phenylbutoxy)benzamide]",64,81,1.3,confirmed the inhibitory activity,significantly inhibited
